{"source": "PubChem BioAssay AID1259411", "about": "(Chemical Carcinogenesis Research Information System (CCRIS), 2018)", "tested_on": "rodent carcinogenicity bioassays, tumor incidence", "assay": "CCRIS carcinogenicity studies", "in_short": "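NCI-built, expert-reviewed records of carcinogenicity and related test outcomes (mutagenicity, tumor promotion/inhibition) compiled from published and report sources, historical span 1985-2011, not updated.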", "note": "Active and inactive are the calls of the source. How the calls were made is not given here.", "data": [{"compound": "CCN(Cc1cccc(S(=O)(=O)O)c1)c1ccc(C(=C2C=CC(=[N+](CC)Cc3cccc(S(=O)(=O)O)c3)C=C2)c2ccccc2S(=O)(=O)[O-])cc1", "values": [{"measurement": "carcinogen call", "setting": "Species: MOUSE, Strain/Sex: CD-1/FEMALE, Route: ORAL, Dose: 0, 0.5, 1.5, 5% IN DIET FOR 104 WK (STUDY DURATION: LIFETIME), Dose: 0, 0.5, 1.5, 5% IN DIET FOR 104 WK (STUDY DURATION: LIFETIME)", "value": "inactive; negative"}, {"measurement": "carcinogen call", "setting": "Species: MOUSE, Strain/Sex: CD-1/MALE, Route: ORAL, Dose: 0, 0.5, 1.5, 5% IN DIET FOR 104 WK (STUDY DURATION: LIFETIME), Dose: 0, 0.5, 1.5, 5% IN DIET FOR 104 WK (STUDY DURATION: LIFETIME)", "value": "inactive; negative"}, {"measurement": "carcinogen call", "setting": "Species: MOUSE, Strain/Sex: ICR/FEMALE, Route: DERMAL, Dose: 0, 1 MG IN 0.1 ML DISTILLED WATER 2/WK FOR A MEAN TOTAL DOSE OF 128.8 MG (STUDY DURATION: 18 MO)", "value": "inactive; negative"}, {"measurement": "carcinogen call", "setting": "Species: MOUSE, Strain/Sex: ICR/MALE, Route: DERMAL, Dose: 0, 1 MG IN 0.1 ML DISTILLED WATER 2/WK FOR A MEAN TOTAL DOSE OF 128.8 MG (STUDY DURATION: 18 MO)", "value": "inactive; negative"}, {"measurement": "carcinogen call", "setting": "Species: RAT, Route: SUBCUTANEOUS, Tumor Site: Type of Lesion: INJECTION SITE", "value": "active; positive"}, {"measurement": "carcinogen call", "setting": "Species: RAT, Strain/Sex: STRAIN-CD/FEMALE, Route: ORAL, Dose: 0, 0.1, 1, 2% IN DIET FOR 111 WK (PARENTS FED 0; 0.1; 1; 2% RESPECTIVELY IN DIET) (STUDY DURATION: LIFETIME), Dose: 0, 0.1, 1, 2% IN DIET FOR 111 WK (PARENTS FED 0; 0.1; 1; 2% RESPECTIVELY IN DIET) (STUDY DURATION: LIFETIME)", "value": "inactive; negative"}, {"measurement": "carcinogen call", "setting": "Species: RAT, Strain/Sex: STRAIN-CD/MALE, Route: ORAL, Dose: 0, 0.1, 1, 2% IN DIET FOR 116 WK (PARENTS FED 0; 0.1; 1; 2% RESPECTIVELY IN DIET) (STUDY DURATION: LIFETIME), Dose: 0, 0.1, 1, 2% IN DIET FOR 116 WK (PARENTS FED 0; 0.1; 1; 2% RESPECTIVELY IN DIET) (STUDY DURATION: LIFETIME)", "value": "inactive; negative"}]}, {"compound": "S=C1NCCN1", "values": [{"measurement": "carcinogen call", "setting": "Species: MOUSE, Strain/Sex: B6AKF1/MALE,FEMALE, Route: GAVAGE/ORAL, Dose: 215 MG/KG IN GELATIN FROM DAY 7-28 OF LIFE THEN 646 PPM IN DIET, Tumor Site: Type of Lesion: LIVER: HEPATOMA, LYMPHATIC SYSTEM: LYMPHOMA", "value": "active; positive"}, {"measurement": "carcinogen call", "setting": "Species: MOUSE, Strain/Sex: B6C3F1/FEMALE, Route: ORAL, Dose: 0, 100, 330, 1000 PPM IN FEED FOR 24 MO, ADMINISTRATION BEGUN AT 8 WK OF AGE TO ANIMALS EXPOSED PERINATALLY BY ORAL, Dose: 0, 100, 330, 1000 PPM IN FEED FOR 24 MO, ADMINISTRATION BEGUN AT 8 WK OF AGE TO ANIMALS EXPOSED PERINATALLY BY ORAL, Tumor Site: Type of Lesion: LIVER: HEPATOCELLULAR ADENOMA, HEPATOCELLULAR CARCINOMA, PITUITARY GLAND, PARS DISTALIS: ADENOMA, THYROID GLAND: FOLLICU, Tumor Site: Type of Lesion: LIVER: HEPATOCELLULAR ADENOMA, HEPATOCELLULAR CARCINOMA, PITUITARY GLAND, PARS DISTALIS: ADENOMA, THYROID GLAND: FOLLICU", "value": "active; positive"}, {"measurement": "carcinogen call", "setting": "Species: MOUSE, Strain/Sex: B6C3F1/FEMALE, Route: ORAL, Dose: 0, 330, 1000 PPM IN FEED FOR 24 MO (STUDY DURATION: 2 YR), Dose: 0, 330, 1000 PPM IN FEED FOR 24 MO (STUDY DURATION: 2 YR), Tumor Site: Type of Lesion: LIVER: HEPATOCELLULAR ADENOMA, HEPATOCELLULAR CARCINOMA, PITUITARY GLAND, PARS DISTALIS: ADENOMA, THYROID GLAND: FOLLICU, Tumor Site: Type of Lesion: LIVER: HEPATOCELLULAR ADENOMA, HEPATOCELLULAR CARCINOMA, PITUITARY GLAND, PARS DISTALIS: ADENOMA, THYROID GLAND: FOLLICU", "value": "active; positive"}, {"measurement": "carcinogen call", "setting": "Species: MOUSE, Strain/Sex: B6C3F1/MALE,FEMALE, Route: GAVAGE/ORAL, Dose: 215 MG/KG IN GELATIN FROM DAY 7-28 OF LIFE THEN 646 PPM IN DIET, Tumor Site: Type of Lesion: LIVER: HEPATOMA, LYMPHATIC SYSTEM: LYMPHOMA", "value": "active; positive"}, {"measurement": "carcinogen call", "setting": "Species: MOUSE, Strain/Sex: B6C3F1/MALE, Route: ORAL, Dose: 0, 100, 330, 1000 PPM IN FEED FOR 24 MO, ADMINISTRATION BEGUN AT 8 WK OF AGE TO ANIMALS EXPOSED PERINATALLY BY ORAL, Dose: 0, 100, 330, 1000 PPM IN FEED FOR 24 MO, ADMINISTRATION BEGUN AT 8 WK OF AGE TO ANIMALS EXPOSED PERINATALLY BY ORAL, Tumor Site: Type of Lesion: LIVER: HEPATOCELLULAR CARCINOMA, HEPATOCELLULAR ADENOMA OR CARCINOMA, THYROID GLAND: FOLLICULAR CELL ADENOMA, FOLLICULAR", "value": "active; positive"}, {"measurement": "carcinogen call", "setting": "Species: MOUSE, Strain/Sex: B6C3F1/MALE, Route: ORAL, Dose: 0, 330, 1000 PPM IN FEED FOR 24 MO (STUDY DURATION: 2 YR), Dose: 0, 330, 1000 PPM IN FEED FOR 24 MO (STUDY DURATION: 2 YR), Tumor Site: Type of Lesion: LIVER: HEPATOCELLULAR CARCINOMA, PITUITARY GLAND, PARS DISTALIS: ADENOMA, THYROID GLAND: FOLLICULAR CELL ADENOMA, Tumor Site: Type of Lesion: LIVER: HEPATOCELLULAR CARCINOMA, PITUITARY GLAND, PARS DISTALIS: ADENOMA, THYROID GLAND: FOLLICULAR CELL ADENOMA", "value": "active; positive"}, {"measurement": "carcinogen call", "setting": "Species: RAT, Strain/Sex: F344/FEMALE, Route: ORAL, Dose: 0, 25, 83, 250 PPM IN FEED FOR 24 MO, ADMINISTRATION BEGUN AT 8 WK OF AGE TO ANIMALS EXPOSED PERINATALLY BY ORAL DOS, Dose: 0, 25, 83, 250 PPM IN FEED FOR 24 MO, ADMINISTRATION BEGUN AT 8 WK OF AGE TO ANIMALS EXPOSED PERINATALLY BY ORAL DOS, Tumor Site: Type of Lesion: THYROID GLAND: FOLLICULAR CELL ADENOMA, FOLLICULAR CELL CARCINOMA", "value": "active; positive"}, {"measurement": "carcinogen call", "setting": "Species: RAT, Strain/Sex: F344/FEMALE, Route: ORAL, Dose: 0, 83, 250 PPM IN FEED FOR 24 MO (STUDY DURATION: 2 YR), Dose: 0, 83, 250 PPM IN FEED FOR 24 MO (STUDY DURATION: 2 YR), Tumor Site: Type of Lesion: THYROID GLAND: FOLLICULAR CELL ADENOMA, FOLLICULAR CELL CARCINOMA", "value": "active; positive"}, {"measurement": "carcinogen call", "setting": "Species: RAT, Strain/Sex: F344/MALE, Route: ORAL, Dose: 0, 25, 83, 250 PPM IN FEED FOR 24 MO, ADMINISTRATION BEGUN AT 8 WK OF AGE TO ANIMALS EXPOSED PERINATALLY BY DOSES TO, Dose: 0, 25, 83, 250 PPM IN FEED FOR 24 MO, ADMINISTRATION BEGUN AT 8 WK OF AGE TO ANIMALS EXPOSED PERINATALLY BY DOSES TO, Tumor Site: Type of Lesion: THYROID GLAND: FOLLICULAR CELL ADENOMA, FOLLICULAR CELL CARCINOMA", "value": "active; positive"}, {"measurement": "carcinogen call", "setting": "Species: RAT, Strain/Sex: F344/MALE, Route: ORAL, Dose: 0, 83, 250 PPM IN FEED FOR 24 MO (STUDY DURATION: 2 YR), Dose: 0, 83, 250 PPM IN FEED FOR 24 MO (STUDY DURATION: 2 YR), Tumor Site: Type of Lesion: THYROID GLAND: FOLLICULAR CELL ADENOMA, FOLLICULAR CELL CARCINOMA", "value": "active; positive"}, {"measurement": "carcinogen call", "setting": "Species: RAT, Strain/Sex: STRAIN-CD/MALE,FEMALE, Route: ORAL, Dose: 175, 350 PPM IN DIET FOR 78 WK, Tumor Site: Type of Lesion: THYROID GLAND: FOLLICULAR CARCINOMA", "value": "active; positive"}]}, {"compound": "Clc1cccc(-c2ccc(Cl)c(Cl)c2Cl)c1Cl", "values": [{"measurement": "carcinogen call", "setting": "Species: MOUSE, Strain/Sex: BALB/MALE, Route: ORAL, Dose: 300 MG/KG IN DIET FOR 6 OR 11 MO, Tumor Site: Type of Lesion: LIVER: HEPATOMA", "value": "active; positive"}, {"measurement": "carcinogen call", "setting": "Species: RAT, Strain/Sex: F344/FEMALE, Route: ORAL, Dose: 0, 25, 50, 100 PPM IN DIET FOR 104-105 WK (STUDY DURATION: 104-105 WK), Dose: 0, 25, 50, 100 PPM IN DIET FOR 104-105 WK (STUDY DURATION: 104-105 WK), Tumor Site: Type of Lesion: LIVER: ADENOMA, STOMACH: ADENOMA, ADENOCARCINOMA", "value": "equivocal"}, {"measurement": "carcinogen call", "setting": "Species: RAT, Strain/Sex: F344/MALE, Route: ORAL, Dose: 0, 25, 50, 100 PPM IN DIET FOR 104-105 WK (STUDY DURATION: 104-105 WK), Dose: 0, 25, 50, 100 PPM IN DIET FOR 104-105 WK (STUDY DURATION: 104-105 WK), Tumor Site: Type of Lesion: LIVER: HEPATOCELLULAR ADENOMA, HEPATOCELLULAR CARCINOMA, GASTROINTESTINAL SYSTEM: ADENOCARCINOMA OR CARCINOMA", "value": "equivocal"}, {"measurement": "carcinogen call", "setting": "Species: RAT, Strain/Sex: SPRAGUE-DAWLEY/FEMALE, Route: ORAL, Dose: 0, 25, 50, 100 PPM IN DIET FOR THE DURATION OF STUDY (STUDY DURATION: 24 MO), Dose: 0, 25, 50, 100 PPM IN DIET FOR THE DURATION OF STUDY (STUDY DURATION: 24 MO), Tumor Site: Type of Lesion: LIVER: TUMOR", "value": "active; positive"}, {"measurement": "carcinogen call", "setting": "Species: RAT, Strain/Sex: SPRAGUE-DAWLEY/MALE, Route: ORAL, Dose: 0, 25, 50, 100 PPM IN DIET FOR THE DURATION OF STUDY (STUDY DURATION: 24 MO), Dose: 0, 25, 50, 100 PPM IN DIET FOR THE DURATION OF STUDY (STUDY DURATION: 24 MO), Tumor Site: Type of Lesion: THYROID GLAND: ADENOMA OR CARCINOMA", "value": "active; positive"}]}]}
